Patent US10463772B2, “Prostaglandin and prostamide drug delivery systems and intraocular therapeutic uses thereof” (ALLERGAN, INC., priority 2008, dated 2019)

How the values were obtained:
[1] = cited from earlier work
[2] = Heat stability of latanoprost (biological activity); assay type: physicochemical; conditions: on heating

In the case of CC(C)OC(=O)CCC/C=C\C[C@@H]1[C@@H](CC[C@@H](O)CCc2ccccc2)[C@H](O)C[C@@H]1O [latanoprost], the “Solubility in acetone, ethanol, ethyl acetate, isopropanol, methanol and octanol” value [1] is listed as “freely soluble”, the Solubility in acetonitrile [1] is listed as “very soluble” and the Solubility in water [1] is listed as “practically insoluble”. The “Temperature above which latanoprost begins to lose biological activity” value [2] was “about 56 °C”.
